In PubChem BioAssay (NCI):
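Cells were grown in 96-well plates and exposed to each compound for 48 hours at five concentrations; endpoints were interpolated linearly between bracketing concentrations, or set to the highest concentration if not reached. TGI: concentration producing complete growth inhibition.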

What was measured:
Experiment in all cases: DTP human tumour cell line panel, 48 h
[1] = test system: HCT-15 colon
[2] = test system: BT-549 breast
[3] = test system: DU-145 prostate
[4] = test system: SNB-19 CNS
[5] = test system: SK-OV-3 ovarian
[6] = test system: NCI-H226 lung
[7] = test system: SK-MEL-28 melanoma
[8] = test system: TK-10 renal
[9] = test system: NCI-H23 lung
[10] = test system: A549 NSCLC
[11] = test system: HOP-62 NSCLC
[12] = test system: HS 578T breast
[13] = test system: M14 melanoma
[14] = test system: NCI-H522 lung
[15] = test system: PC-3 prostate
[16] = test system: RPMI-8226 leukemia
[17] = test system: SW-620 colon
[18] = test system: SF-295 CNS
[19] = test system: MOLT-4 leukemia
[20] = test system: OVCAR-5 ovarian
[21] = test system: RXF 393 renal
[22] = test system: KM12 colon
[23] = test system: UACC-257 melanoma
[24] = test system: SK-MEL-2 melanoma
[25] = test system: OVCAR-4 ovarian
[26] = test system: A498 renal
[27] = test system: CCRF-CEM leukemia
[28] = test system: CAKI-1 renal
[29] = test system: SK-MEL-5 melanoma
[30] = test system: MDA-MB-435
[31] = test system: IGROV1 ovarian
[32] = test system: K-562 leukemia
[33] = test system: MDA-MB-231 breast
[34] = test system: MALME-3M melanoma
[35] = test system: HT29 colon
[36] = test system: SN12C renal
[37] = test system: HCT-116 colon
[38] = test system: NCI-H460 lung
[39] = test system: NCI/ADR-RES ovarian
[40] = test system: 786-0 renal
[41] = test system: U251 CNS
[42] = test system: MDA-N
[43] = test system: OVCAR-3 ovarian
[44] = test system: UO-31 renal
[45] = test system: SF-539 CNS
[46] = test system: SF-268 CNS
[47] = test system: EKVX NSCLC
[48] = test system: UACC-62 melanoma
[49] = test system: ACHN renal
[50] = test system: OVCAR-8 ovarian
[51] = test system: HL-60(TB) leukemia
[52] = test system: COLO 205 colon
[53] = test system: HOP-92 NSCLC
[54] = test system: HCC-2998 colon
[55] = test system: LOX IMVI melanoma
[56] = test system: SR leukemia
[57] = test system: MCF7 breast
[58] = test system: SNB-75 CNS
[59] = test system: T-47D breast

Measured: TGI

c1ccc(C2CC(N3CCOCC3)=Nc3ccccc3N2)cc1 (centres undefined)
> 100 µM: [1] | [2] | [3] | [4] | [5] | [6] | [7] | [8] | [9] | [10] | [11] | [12] | [13] | [14] | [15] | [16] | [17] | [18] | [19] | [20] | [21] | [22] | [23] | [24] | [25] | [26] | [27] | [28] | [29] | [30] | [31] | [32] | [33] | [34] | [35] | [36] | [37] | [38] | [39] | [40] | [41] | [42] | [43] | [44] | [45] | [46] | [47] | [48] | [49] | [50] | [51] | [52]

CC(C)(C)OC(=O)C1/C(=C/CO)CN1C(=O)OC(C)(C)C (centres undefined)
> 100 µM: [1] | [2] | [4] | [5] | [53] | [7] | [8] | [9] | [10] | [11] | [12] | [13] | [15] | [16] | [17] | [18] | [19] | [20] | [54] | [55] | [23] | [24] | [25] | [26] | [56] | [27] | [28] | [29] | [30] | [31] | [32] | [34] | [35] | [36] | [37] | [38] | [39] | [57] | [40] | [42] | [43] | [44] | [45] | [46] | [47] | [48] | [49] | [50] | [51] | [52]

O=C1OC(c2ccc([N+](=O)[O-])cc2)=N/C1=C\c1ccc(O)cc1
> 100 µM: [1] | [2] | [3] | [4] | [5] | [6] | [53] | [7] | [8] | [9] | [10] | [11] | [12] | [13] | [14] | [15] | [16] | [17] | [18] | [19] | [20] | [54] | [55] | [21] | [22] | [23] | [24] | [25] | [26] | [56] | [27] | [28] | [29] | [30] | [31] | [32] | [58] | [33] | [34] | [35] | [36] | [37] | [38] | [57] | [40] | [41] | [42] | [43] | [59] | [45] | [46] | [47] | [48] | [49] | [50] | [51] | [52]
